Results: BindingDB's records for doi:10.1016/j.bmcl.2010.10.020 (Incyte, 2010)

Experiments:
[1] = Antagonist activity at human CCR2 assessed as inhibition of MCP1 induced chemotaxis after 30 mins
[2] = Antagonist activity at mouse CCR2 assessed as inhibition of MCP1 induced chemotaxis after 30 mins

Compound | IC50 [1] [nM] | IC50 [2] [nM]
CCO[C@H]1CN([C@H]2CC[C@@H](c3ccccc3)CC2)C[C@@H]1NC(=O)CNC(=O)c1cccc(C(F)(F)F)c1 [N-(2-((3S,4S)-4-ethoxy-1-(cis-4-phenylcyclohexyl)pyrrolidin-3-ylamino)-2-oxoethyl)-3-(trifluoromethyl)benzamide] | 6.5 | 14
O=C(CNC(=O)c1cccc(C(F)(F)F)c1)N[C@H]1CN([C@H]2CC[C@@H](c3ccccc3)CC2)C[C@@H]1O [N-(2-((3S,4S)-4-hydroxy-1-(cis-4-phenylcyclohexyl)pyrrolidin-3-ylamino)-2-oxoethyl)-3-(trifluoromethyl)benzamide] | 12 | 265
CCCO[C@H]1CN([C@H]2CC[C@@H](c3ccccc3)CC2)C[C@@H]1NC(=O)CNC(=O)c1cccc(C(F)(F)F)c1 [N-(2-oxo-2-((3S,4S)-1-(cis-4-phenylcyclohexyl)-4-propoxypyrrolidin-3-ylamino)ethyl)-3-(trifluoromethyl)benzamide] | 1.8 | 158

The remaining compounds from weak to strong by IC50 [1], led by results:

IC50 [1] [nM] | IC50 [2] [nM] | Compound
3 | 444 | CCO[C@H]1CN([C@H]2CC[C@@](O)(c3ccccc3)CC2)C[C@@H]1NC(=O)CNC(=O)c1cccc(C(F)(F)F)c1 [N-(2-((3S,4S)-4-ethoxy-1-(cis-4-hydroxy-4-phenylcyclohexyl)pyrrolidin-3-ylamino)-2-oxoethyl)-3-(trifluoromethyl)benzamide]
1.4 | 13 | CCO[C@H]1CN([C@H]2CC[C@@](O)(c3ccc(C)cc3)CC2)C[C@@H]1NC(=O)CNC(=O)c1cccc(C(F)(F)F)c1 [N-(2-((3S,4S)-4-ethoxy-1-(cis-4-hydroxy-4-p-tolylcyclohexyl)pyrrolidin-3-ylamino)-2-oxoethyl)-3-(trifluoromethyl)benzamide]
